Results as given in patent publication US5565433A, “Sulfated β-glycolipid derivatives as cell adhesion inhibitors” (Bristol-Myers Squibb Company, priority 1996, dated 1996).

How the values were obtained:
[1] = target: T1, P-selectin (Homo sapiens, UniProt P16109); assay: P-Selectin Adhesion Receptor Binding: cell-free ELISA, inhibition of P-selectin binding to immobilized sulfatides; details: immobilized sulfatide, pH 8.0
T1 construct: consists of the human lectin domain, the EGF domain, and two complement repeats of the human selectins; made in house
T1 sequence (P16109 with tags, fused parts or gaps limits assumed): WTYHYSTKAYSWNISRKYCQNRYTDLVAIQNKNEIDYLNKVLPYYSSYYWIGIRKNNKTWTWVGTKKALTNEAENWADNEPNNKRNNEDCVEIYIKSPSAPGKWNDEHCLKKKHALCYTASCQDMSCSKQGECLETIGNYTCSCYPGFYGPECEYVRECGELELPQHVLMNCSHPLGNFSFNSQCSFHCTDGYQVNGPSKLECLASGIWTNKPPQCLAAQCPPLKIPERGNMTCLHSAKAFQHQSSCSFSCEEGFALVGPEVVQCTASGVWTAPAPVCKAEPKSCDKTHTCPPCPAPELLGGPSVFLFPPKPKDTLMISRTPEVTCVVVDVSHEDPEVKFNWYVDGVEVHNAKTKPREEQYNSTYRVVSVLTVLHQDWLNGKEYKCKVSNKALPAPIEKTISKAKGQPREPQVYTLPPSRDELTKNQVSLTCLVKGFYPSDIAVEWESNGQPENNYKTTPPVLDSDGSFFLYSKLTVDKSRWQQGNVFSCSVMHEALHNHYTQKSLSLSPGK
Description: 1. P-Selectin Adhesion Receptor Binding
P-selectin (GMP140, granule membrane protein-140, PADGEM, or CD62) is a calcium-dependent transmembrane protein found in alpha granules of endothelial cells and platelets. It is an inducible selectin produced on activated endothelium and platelets which recognize alpha(2-3)sialylated and alpha(1-3)fucosylated lactosaminoglycans which include the sequence, Lewis x (Zhou et al., J. Cell. Biol., (1991) 115 (2): 557-564) and sulfatides (3-sulfated galactosyl ceramides, Aruffo, et al., Cell (1991) 67: 35-44). P-selectin may be responsible for the initial adhesion events between endothelium and neutrophils as evidenced by leukocyte rolling induced by P-selectin in flow cells (Lawrence, M., and T. Springer, Cell (1991) 65: 859-873).
Based on the availability of soluble forms of P-selectin prepared as described by Aruffo, A., et al., Cell, 67, 35-44 (1991), a binding ELISA based assay modified from Foxall, et al., J., Cell Biol., 117, 895-902 (1992) was developed to measure inhibitors of P-selectin binding to immobilized sulfatides. Such inhibitors were tested in the assay described below.
0.1 ml of sulfatide (SIGMA) or lysosulfatide (SIGMA) each at 1 μg/ml in MeOH were added to the wells of a 96-well ELISA plate (ProBind, Falcon) and allowed to dry overnight at room temperature. The next day the antigen coated plates were blocked for 1.5 hours at room temperature with 5% BSA (ICN) in buffer containing 20mM Hepes and 0.15 M NaCl, pH 8.0. Wild type P-selectin and mutants thereof were first mixed with HRP-conjugated goat anti-human IgG (Fisher Scientific), serially diluted and then incubated for 30 minutes at 37° C. in buffer containing 20 mM Hepes, 0.15 M NaCl, 1% BSA and 0.8 mM CaCl2, pH 8.0 prior to addition to the BSA blocked plates. Following the 30 minute preincubation, the fusion protein-HRP conjugate immunocomplexes were incubated on the blocked antigen coated plates for 45 minutes at 37° C. in the presence or absence of the test compounds and then washed to remove any unbound proteins. Bound complexes were detected by addition of substrate buffer (95 mM NaOAc.3H2 O, 5 mM citric acid monohydrate, 1.4 mM urea/H2O2) containing 3, 3', 5, 5' Tetramethylbenzidine (SIGMA). Reactions were stopped by the addition of 3N sulfuric acid and the absorbance read on an ELISA reader at dual wavelengths 450 and 630 nm. The efficacy of these compounds was compared to that of sulfatide (positive control) or to lysosulfatide (negative control). The data is obtained as percent inhibition of specific binding [formula] and a plot of dose vs. percent inhibition of Rg binding is generated in which IC50 (μM) is calculated and reported as cell free data in Table 1.

[2] = target: T1, P-selectin; assay: HL-60 Cell Binding to P-selectin Rg; type: cell-based; details: HL-60 cells binding to P-selectin Rg coated wells
Procedure: 2. HL-60 Cell Binding to P- and E-Selectin RG
Receptor globulin (Rg) Construction
The chimeric P-and E-selectin receptor globulin (Rg) consists of the human lectin domain, the EGF domain, and two complement repeats of the human selectins fused to the hinge, CH1 and CH2 domains of human IgG1. These proteins were prepared as described by Aruffo, et al., Cell (1991) 67: 35-44; Walz, et al., Science (1990) 250, 1132-1135.
Cell binding assay for Rg
The HL-60 cell line, obtained from the American Type Culture Collection, ATCC No. CCL240, was employed to investigate P-selectin Rg binding. Assays were done in 96-well tissue culture dishes. The wells were first coated with 0.5 ug goat anti-human Fc antiserum overnight, and nonspecific binding sites were blocked by incubation of the wells with 1% nonfat dry milk in phosphate buffered saline (PBS containing 0.9 mM CaCl2 and 0.8 mM MgSO4) for 30 minutes. The Rg was then bound to the anti Fc-coated wells by incubating 50 ng in 50 ul of PBS for two hours. Cells, washed twice and resuspended in PBS to remove traces of medium components, were labeled with 10 uM calcein acetoxy methyl ester for 30 minutes at 3×10^7 cells per ml at room temperature. Serum-containing medium (RPMI with 20% fetal calf serum) was added, and the cells washed, followed by resuspension in PBS and a further spin. The labeled cells, resuspended in PBS, were added to twice washed Rg-containing wells at 200,000 per well. Following a 30 minute incubation with slow shaking, the wells were aspirated and washed three times with PBS to remove unbound cells. To certain wells were added known numbers of cells for determination of a standard curve of fluorescent units per cell. The fluorescence on the plate was quantitated using a fluorescent plate reader. Following subtraction of a blank representing the binding of cells to non-Rg containing wells (<5000 cells), the specific binding to P- or E- selectin was determined.
Inhibitors of cell binding
Test compounds were prepared by dissolution to a final concentration of 20 mg/ml in dimethyl sulfoxide (DMSO), diluted in PBS to 2 mg/ml, and briefly sonicated prior to use. The Rg coated wells were preincubated at room temperature for 15 minutes with the inhibitor, and 200,000 cells were added to yield the final indicated inhibitor concentration in 160 ul of PBS. The data is obtained as percent inhibition of specific binding: [formula] and a plot of dose vs. percent inhibition of Rg binding is generated in which IC50 (μM) is calculated and reported in Table 1.

[3] = system: P-selectin; details: Skinner et al.; cited from earlier work
[4] = system: Reverse Passive Arthus Reaction in Rats; assay: Reverse Passive Arthus Reaction in Rats, myeloperoxidase (MPO); type: in vivo; details: rat, IV, % inhibition at 3 mg single dose, 4 hours
Description: (§1) 3. Reverse Passive Arthus Reaction in Rats
(§2) The reverse passive Arthus reaction in rats is a modification of the method by Mulligan et al., as described in J. Clin. Invest., (1991 ) 88:1396-1406. This is an experimental model in which the interaction of antigen-antibody complexes and complement leads to a severe vasculitis that is associated with edema, induration, erythema and hemorrhage. The interaction between the antigen-antibody complexes and complement leads to a localized influx of neutrophils. These neutrophils release a variety of mediators that are associated with tissue damage and vascular permeability. The localized inflammatory reaction is measured using different techniques i.e., vascular permeability and neutrophil influx which is evaluated both biochemically and microscopically.
(§3) Male Sprague Dawley specific pathogen-free rats with jugular vein cannulae (280-320 g, Hill Top Labs, Pa.) are used in these studies. Animals are acclimated for at least 1 day and individually housed in stainless steel cages. The dorsal region of the rats is closely clipped 2 days prior to the experiments and divided into 4 sites on each side of the midline. Prior to all injections the rats are sedated with 0.4 ml per 300 gm rat of ketamine/rompun [1000 mg (10 ml) of ketamine HCL is mixed with 40 mg (2.0 ml) Rompun] administered IP and or inhalation anesthesia with metafane (methoxyflurane).
(§4) Bovin Serum Albumin (BSA) and rabbit polyclonal IgG rich in anti-BSA are purchased from Sigma Chemical Co. (St. Louis, Mo.). Radiolabelled ^125 I-BSA (spAct 1-5 μCi/μg) is purchased from Dupont NEN (Boston, Mass.).
(§5) Each rat is administered intradermal (ID) injection of (0.4 mg, 0.6 mg and 0.8 mg) anti-BSA in a volume of 100 μl per injection in normal saline. The ID injections are randomized near the mid dorsal region on both sides of the back bone. Immediately after the ID injections of the anti-BSA, the rats are administered intravenous (IV) injections of BSA (10 mg in 1.0 ml) in normal saline containing ^125 I labeled BSA (1 μCi/ml BSA or 5.0 μCi/kg body wt) for quantification of dermal vascular injury. Anti-inflammatory agents such as inhibitors of adhesion molecules of the present invention are administered IV at a single dose of 3 mg immediately after BSA. Four (4) hours after the IV injection of BSA, the rats are anesthetized with metafane and 2 to 3 ml of blood is withdrawn via the cannula into an anticoagulant containing (EDTA or Heparin) tube and plasma separated and saved for neutrophil and albumin quantitation. The rats are killed and the skin surrounding the injection site (15 mm diameter) is punched out and weighed. The skin samples and a fixed volume of plasma (0.1 to 1.0 ml) is analyzed in a gamma-counter for ^125 I content. Skin samples from the contralateral side are processed and analyzed for myeloperoxidase activity (MPO) as a measure of neutrophil accumulation. As needed, samples are also processed for histological evaluation of the reacted sites.
MPO is located in the azurephil granules of polymorphonuclear leukocytes (PMN). Because of its abundance in these cells (5% dry weight), this enzyme is used as a marker for tissue neutrophil content. For tissue MPO content, the method of Bradley, et al., was used as described in J. Invest. […] Change in absorbance at 450 nm was measured at room temperature using a Vmax kinetic plate reader (Molecular Devices, Pale Alto, Calif., USA). Percent inhibition of the test compound at 3 mg dose was determined as follows: [formula] […]

[5] = system: Reverse Passive Arthus Reaction in Rats; assay: Reverse Passive Arthus Reaction in Rats, vascular permeability (VP); type: in vivo; details: rat, IV, % inhibition at 3 mg single dose, 4 hours
Description: as §1, §2, §3, §4, §5
Vascular Permeability (VP)
The calculation of the plasma protein exudation into skin is made by determining the radioactivity in the tissue and relating this to the level of radioactive albumin in the blood at the time of sacrifice. […] [formula]
Percent inhibition of the test compound at 3 mg was determined as follows: [formula] Myeloperoxidase (MPO)

Row | Molecule | IC50 [1] [nM] | IC50 [2] [nM] | inhibition of P-selectin mediated adhesion (in words) [3] | RPA MPO % Inhib. [4] [%] | RPA VP % Inhib. [5] [%]
1 | CCCCCCCCCCCCC/C=C/[C@@H](OC(=O)c1ccccc1)[C@H](CO[C@@H]1O[C@H](COS(=O)(=O)O)[C@H](OC(C)=O)[C@H](OS(=O)(=O)O)[C@H]1OC(=O)c1ccccc1)NC(=O)CCCCCCCCCCCCCCC [Example 8, (2S,3R,4E)-3-Benzoyloxy-2-hexadecanoylamino-1-[2-O-benzoyl-4-O-acetyl-3,6-di-O-(sodiumoxysulfonyl)-β-D-galactopyranosyloxy]-4-octadecene] | 1300 | 15000 | – | – | –
2 | dextran sulfate | – | – | inhibit P-selectin mediated adhesion | – | –
3 | CCCCCCCCCCCCC/C=C/[C@@H](OC(=O)c1ccccc1)[C@H](CO[C@@H]1O[C@@H]2COC(c3ccccc3)O[C@@H]2[C@H](OS(=O)(=O)O)[C@H]1OS(=O)(=O)O)NC(=O)CCCCCCCCCCCCCCC (stereo partly drawn) [Example 10, (2S,3R,4E)-3-Benzoyloxy-2-hexadecanoylamino-1-[2,3-di-O-(sodiumoxysulfonyl)-4,6-O-benzylidene-β-D-galactopyranosyloxy)-4-octadecene] | – | – | – | 56 | 0
4 | CCCCCCCCCCCCCCCCCCCCCCCC(=O)N[C@@H](CO[C@@H]1O[C@H](COS(=O)(=O)O)[C@H](OS(=O)(=O)O)[C@H](OC(=O)c2ccccc2)[C@H]1OC(=O)c1ccccc1)[C@@H](CCCCCCCCCCCCCCC)OC(=O)c1ccccc1 [Example 19, (2S,3R)-3-Benzoyloxy-1-[2,3-di-O-benzoyl-4,6-di-O-(sodiumoxysulfonyl)-β-D-galactopyranosyl-oxy]-2-tetracosanoylaminooctadecane] | 600 to 4000 | 45000 | – | – | –
5 | CCCCCC/C=C/[C@@H](OC(=O)c1ccccc1)[C@H](CO[C@@H]1O[C@H](COS(=O)(=O)O)[C@H](O)[C@H](O)[C@H]1OS(=O)(=O)O)NC(=O)CCCCCCCCCCCCCCC [Example 25, (2S,3R,4E)-3-Benzoyloxy-2-hexadecanoylamino-1-[2,6-di-O-(sodiumoxysulfonyl)-β-D-galactopyranosyloxy]-4-undecene] | 2700 | – | – | – | –
6 | heparin | – | – | inhibit P-selectin mediated adhesion | – | –
7 | CCCCCCCCCCCCC/C=C/[C@@H](OC(=O)c1ccccc1)[C@H](CO[C@@H]1O[C@H](COS(=O)(=O)O)[C@H](OS(=O)(=O)O)[C@H](OC(=O)c2ccccc2)[C@H]1OC(=O)c1ccccc1)NC(=O)CCCCCCCCCCCCCCC [Example 1, (2S,3R,4E)-3-Benzoyloxy-2-hexadecanoylamino-1-[2,3-di-O-benzoyl-4,6-di-O-(sodiumoxysulfonyl)-β-D-galactopyranosyloxy]-4-octadecene] | 100 | – | – | 24 | 42
8 | CCCCCCCCCCCCC/C=C/[C@@H](OC(=O)c1ccccc1)[C@H](CO[C@@H]1O[C@H](COS(=O)(=O)O)[C@@H](OS(=O)(=O)O)[C@H](OC(=O)c2ccccc2)[C@H]1OC(=O)c1ccccc1)NC(=O)CCCCCCCCCCCCCCC [Example 3, (2S,3R,4E)-2-Hexadecanoylamino-3-benzoyloxy-1-(2,3-di-O-benzoyl-4,6-di-O-(sodiumoxysulfonyl)-β-D-glucopyranosyloxy)-4-octadecene] | 200 | – | – | 14 | 34
9 | fucoidan | – | – | inhibit P-selectin mediated adhesion | – | –
